The record followed here is patent US9873693B2 (Sunesis Pharmaceuticals, Inc., priority 2006, dated 2018).

Read-outs that look alike come from different tables or passages of the source.

One experiment relates to phospho-akt (Thr308). Description: phospho-akt (Thr308) MSD ELISA in PC-3 cells. It is filed as cell-based. To be noted: Homo sapiens, PC-3 cells; for EC50: PC-3, 2 h, 2 hours, no serum; for inhibition at 1 µM / inhibition at 10 µM: read-out: Percent Inhibition of phospho-Akt (308) By MSD ELISA. The method in brief:
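PC-3 cells plated overnight in 10% FBS medium, then treated with three-fold serial compound dilutions in serum-free medium; DMSO-only wells as high control. Lysates captured on BSA-blocked MSD plates overnight at 4 degrees, detection antibody 1 hr RT, electrochemiluminescence read on MSD reader.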
A general note: In an ELISA, binding on a coated surface is turned into a signal by an enzyme label.

The target in the next experiment is dephosphorylated PDK1 (Homo sapiens (Human), UniProt O15530). Description: PDK1 kinase assay (coupled PDK1/AKT/FAM-crosstide, IMAP). To be noted: 25 nM un-phosphorylated PDK1, 24 μM ATP; read-out: Inhibition of dephospo-PDK1 in vitro IC50. It is filed as biochemical. In a few lines: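 Coupled cascade using 25 nM dephosphorylated PDK1 (aa 51–360, lambda-phosphatase treated, MS-verified), 30 nM unphosphorylated GST-AKT2 (aa 140–467)-PIFtide and 100 nM FAM-crosstide in Tris pH 7.2, 10 mM MgCl2, 1 mM DTT. ATP was 24 μM, with 30 min at 25 °C. Product was read by IMAP fluorescence polarization, and ΔmP against concentration was fitted with a 4-parameter model.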
dephosphorylated PDK1, sequence (O15530 51-360): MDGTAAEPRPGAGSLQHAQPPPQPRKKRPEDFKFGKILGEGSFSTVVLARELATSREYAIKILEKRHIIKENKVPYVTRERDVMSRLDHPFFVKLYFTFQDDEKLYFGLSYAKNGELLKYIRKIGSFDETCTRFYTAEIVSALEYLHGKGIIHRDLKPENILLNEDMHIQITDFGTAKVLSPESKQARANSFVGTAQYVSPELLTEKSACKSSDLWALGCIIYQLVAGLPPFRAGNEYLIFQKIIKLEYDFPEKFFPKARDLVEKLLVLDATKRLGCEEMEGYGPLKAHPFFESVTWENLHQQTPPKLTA

For another experiment, the system named is Phospho-T308 Akt. Briefly: Phospho-T308 Akt detection using immunoblot (western blot) in PC-3 cells. It is filed as cell-based. To be noted: for Reduction of Cellular Levels of Akt p308 By Western: 2 hour incubation, concentration not given in Table 2. Here is the method:
A Phospho-T308 Akt detection using immunoblot (western blot) analysis was performed as described below.
PC-3 prostate cells were plated in a 6 well plate in F12K media (Invitrogen, Carlsbad, Calif.) plus 10% FBS (Invitrogen) and placed in incubator overnight. The stock of compound A was a 50 mM solution in DMSO. 1000× dilutions of the compound were made in DMSO. The 1000× dilutions include, 35 mM, 25 mM, 15 mM, 10 mM, 7 mM, 5 mM, and 1 mM. 1 μl of the 1000× dilutions was added to 1 ml F12K media without serum for final concentrations of […]. 1 μl of DMSO was added to 1 ml media with no serum for a control. The 1 ml DMSO or compound plus media was then added to the cells. Following a 2 hour incubation at 37° C., cells were harvested and washed in PBS and subjected to centrifugation at 3,300 rpm for 5 minutes. Cells were lysed in 100 μl of Bio Rad Bioplex buffer containing protease inhibitors (BioRad, Hercules, Calif.) for 30 minutes on ice followed by centrifugation at 13,000 rpm for 5 minutes. The protein content of the supernatant was assayed using DC Protein Assay (BioRad). 25 μl of protein was added to 4× sample buffer (Invitrogen) and sample reducer (Invitrogen) and run on a 4-12% NuPage gel (Invitrogen). Proteins were then transferred to nitrocellulose (Invitrogen). The membrane was blocked in Tris-buffered saline (Sigma, St. Louis, Mo.) plus 0.1% Tween (Sigma) (T-TBS) plus 5% blotting grade milk (BioRad) for 60 minutes. Membranes were then incubated in T-TBS plus 5% BSA (Sigma) plus 1:1000 of anti-phospho akt (Thr 308) (Cell Signaling Technology, Beverly, Mass.) overnight at 4° C. Membranes were washed in T-TBS then incubated in 1:2000 of anti-rabbit-HRP (Cell Signaling) in TTBS plus 5% milk. Membranes were washed again and proteins were visualized with Super Signal West Pico (Pierce, Rockford, Ill.) and using Kodak BioMax MR film (Kodak, Rochester, N.Y.).
Phospho-akt 308 protein bands on the film were quantified using densitometry. An Alpha Imager (Alpha Innotech Corp, San Leandro, Calif.) using AlphaEase FC software version 4.1.0 (Alpha Innotech Corp.) was used to quantitate protein bands. Briefly, a rectangle of equal size was placed around each protein band as well as a background spot on the film. The densitometry values (IDV=Integrated Density Value) obtained for the background spot was then subtracted from the values obtained for the protein bands. These values were used to obtain an EC50 value using non-linear regression analysis in GraphPad Prism Version 4.00 (Graph Pad Prism, San Diego, Calif.). Percent decrease in expression of phosphoh-akt 308 were also measured specifically at 2 μM and 5 μM levels of inhibitor.
(A western blot detects proteins with antibodies after separation by electrophoresis.)

The target in another experiment is phosphorylated PDK1 (Homo sapiens (Human), UniProt O15530). Description: PDK1 kinase assay (coupled PDK1/AKT/FAM-crosstide, IMAP). It is filed as biochemical. To be noted: 0.5 nM phosphorylated PDK1, 24 μM ATP; read-out: Inhibition of phospo-PDK1 in vitro IC50.
phosphorylated PDK1, sequence (O15530 51-360): as above
[1] abbreviates: read-out: Inhibition of P308 Akt in cells using MSD EC50.
The mark [2] stands for this setting: Homo sapiens, read-out: Percent Inhibition of phospho-Akt (308) By Western.
Setting [3] is: read-out: Reduction of Cellular Levels of Akt p308 By MSD ELISA (EC50 μM).

As for `CNC(=O)C[C@@H](NC(=O)c1cccn(Cc2ccc(F)c(F)c2)c1=O)c1ncc(-c2c[nH]c3ncccc23)s1` [Cpd 137], the EC50 – broadly, the concentration giving half of the maximal effect – in the experiment with phospho-akt (Thr308) (setting [1]) was over 5 µM. In addition, in the experiment on phospho-akt (Thr308), the inhibition (usually how much of the control response was suppressed) at 1 µM was under 25% and the inhibition at 10 µM is over 75%. For the same molecule, the IC50 – broadly, the concentration that gives 50% inhibition – at dephosphorylated PDK1 is under 500 nM. For the same molecule, in the experiment on Phospho-T308 Akt, the “Reduction of Cellular Levels of Akt p308 By Western” value (“Reduction” for short) was “bbb (inhibition of more than 75%)”. The inhibition at 5 µM in the experiment on Phospho-T308 Akt (setting [2]) is over 75%. Also, the IC50 at phosphorylated PDK1 was under 500 nM.
As to `O=C(NCc1cccc(-c2ccc3nccn3c2)c1)c1cccn(Cc2ccc(F)c(F)c2)c1=O` [Cpd 9], the IC50 at dephosphorylated PDK1 and at phosphorylated PDK1 was under 500 nM throughout. For the same molecule, the “Reduction” value in the experiment with Phospho-T308 Akt is “bbb (inhibition of more than 75%)”.
Turning to `C=CCOC(=O)C[C@@H](NC(=O)c1cccn(Cc2ccc(F)c(F)c2)c1=O)c1ncc(-c2c[nH]c3ncccc23)o1` [Cpd 301], the EC50 in the experiment on phospho-akt (Thr308) (setting [1]) and in the experiment with phospho-akt (Thr308) (setting [3]) was 1 to 5 µM throughout. Also, in the experiment with phospho-akt (Thr308), the inhibition at 1 µM was in the range of 25 to 75%. The inhibition at 10 µM in the experiment with phospho-akt (Thr308) fell in the range of 25 to 75%. For the same molecule, the IC50 at dephosphorylated PDK1 and on phosphorylated PDK1 was under 500 nM throughout. For the same molecule, the “Reduction” value in the experiment with Phospho-T308 Akt is “bbb (inhibition of more than 75%)”. In addition, in the experiment with Phospho-T308 Akt (setting [2]), the inhibition at 5 µM is over 75%.
Regarding `O=C(NCc1noc(-c2c[nH]c3ncccc23)n1)c1cccn(Cc2cccc(Cl)c2)c1=O` [Cpd 294], the half-maximal inhibitory concentration (IC50) at dephosphorylated PDK1 and at phosphorylated PDK1 was under 500 nM throughout. Besides, the “Reduction” value in the experiment with Phospho-T308 Akt is recorded as “bb (inhibition of from 25% to 75%)”. The inhibition at 5 µM in the experiment on Phospho-T308 Akt (setting [2]) was in the range of 25 to 75%.
Take `O=C(NCc1cccc(-c2c[nH]c3ncc(CO)cc23)c1)c1cccn(Cc2ccc(F)c(F)c2)c1=O` [Cpd 225]: the EC50 in the experiment with phospho-akt (Thr308) (setting [3]) was under 1 µM. For the same molecule, the 50% inhibitory concentration (IC50) on dephosphorylated PDK1 was under 500 nM. Moreover, the “Reduction” value in the experiment on Phospho-T308 Akt is “bbb (inhibition of more than 75%)”. Also, in the experiment with Phospho-T308 Akt (setting [2]), the inhibition at 5 µM was over 75%.
In the case of `NC(=O)C[C@@H](NC(=O)c1cccn(Cc2ccc(F)c(F)c2)c1=O)c1nnc(-c2c[nH]c3ncccc23)o1` [Cpd 289], in the experiment with phospho-akt (Thr308), the inhibition at 1 µM was under 25% and the inhibition at 10 µM is under 25%. The 50% inhibitory concentration (IC50) at dephosphorylated PDK1 was under 500 nM. In addition, in the experiment on Phospho-T308 Akt, the “Reduction” value was “b (inhibition of less 25%)”. In addition, the inhibition at 5 µM in the experiment with Phospho-T308 Akt (setting [2]) is under 25%.
Regarding `O=C(NCc1cccc(-c2c[nH]c3ncc(F)cc23)c1)c1cccn(Cc2ccc(F)c(F)c2)c1=O` [Cpd 10], in the experiment with phospho-akt (Thr308) (setting [1]), the half-maximal effective concentration (EC50) lay in the range of 1 to 5 µM. In the experiment with phospho-akt (Thr308), the inhibition at 1 µM was in the range of 25 to 75% and the inhibition at 10 µM was over 75%. The “Reduction” value in the experiment on Phospho-T308 Akt was “bbb (inhibition of more than 75%)”. Besides, the inhibition at 5 µM with Phospho-T308 Akt (setting [2]) was over 75%. The IC50 on phosphorylated PDK1 was under 500 nM.
Regarding `O=C(NCc1cccc(-c2ccc3n[nH]c(=O)n3c2)c1)c1cccn(Cc2ccc(F)c(F)c2)c1=O` [Cpd 216], the IC50 at dephosphorylated PDK1 was under 500 nM; on phosphorylated PDK1 it was 500 to 10000 nM. Further, the “Reduction” value in the experiment on Phospho-T308 Akt is given as “bb (inhibition of from 25% to 75%)”. Further, the inhibition at 5 µM in the experiment with Phospho-T308 Akt (setting [2]) fell in the range of 25 to 75%.
For `COC(=O)C[C@H](NC(=O)c1cccn(Cc2ccc(F)c(F)c2)c1=O)c1nnc(-c2c[nH]c3ncccc23)o1` [Cpd 291], the EC50 with phospho-akt (Thr308) (setting [1]) was under 1 µM. Further, in the experiment on phospho-akt (Thr308), the inhibition at 1 µM is 25 to 75% and the inhibition at 10 µM was over 75%. Moreover, the “Reduction” value in the experiment with Phospho-T308 Akt is “bbb (inhibition of more than 75%)”. For the same molecule, the inhibition at 5 µM with Phospho-T308 Akt (setting [2]) is over 75%. The half-inhibitory concentration (IC50) at phosphorylated PDK1 is under 500 nM.
On to `O=C(NCc1cc(-c2c[nH]c3ncccc23)cs1)c1cccn(Cc2ccc(F)c(F)c2)c1=O` [Cpd 17], for which the concentration giving a half-maximal response (EC50) with phospho-akt (Thr308) (setting [1]) was 1 to 5 µM. Besides, in the experiment on phospho-akt (Thr308), the inhibition at 1 µM fell in the range of 25 to 75% and the inhibition at 10 µM was over 75%. In the experiment with Phospho-T308 Akt, the “Reduction” value was “bbb (inhibition of more than 75%)”. Also, in the experiment with Phospho-T308 Akt (Homo sapiens, at 2 μM, read-out: Percent Inhibition of phospho-Akt (308) By Western), the inhibition at 2 µM is over 75%. Moreover, the half-inhibitory concentration (IC50) on phosphorylated PDK1 was under 500 nM.
